How the values were obtained:
[1] = test system: Ba/F3 cells expressing OCLN-RASGRF1; assay: Cell viability (Cell Titer-Glo), Ba/F3 cells expressing OCLN-RASGRF1; type: cell-based
Protocol: Ba F3 Transformation Assays. Ba/F3 cells were maintained in RPMI 1640 (Gibco) with heat-inactivated 10% fetal bovine serum (Gibco) and penicillin (100 units/mL)/streptomycin (100 μg/mL; Gibco) and 1 ng/mL interleukin-3 (IL-3; Gibco). cDNAs (GFP or OCLN-RASGRF1) in pLX307 were introduced into Ba/F3 cells via lentiviral transduction with 8 μg/mL polybrene and centrifugation at 2250 rpm at 37 degrees C. for 30 minutes. 24 hours later, transduced cells were selected with 1 μg/mL puromycin for at least 5 days.
Cell Viability Assays and RASGRF1 knockdown. Ba/F3 cells or PaCaDD137 cells were seeded in 96-well microtiter plates. Drug or drug vehicle was added on the same day (for Ba/F3 cells) or 24 hours after seeding (for PaCaDD137 cells). Following 4-5 days of drug exposure, cell viability was determined using the Cell Titer-Glo luminescent assay (Promega) according to the manufacturer's instructions. Luminescence was measured with a Spectramax M3 plate reader (Molecular Devices). Data analysis was performed using GraphPad Prism software.

PaCaDD137 cells = assay: Cell viability (Cell Titer-Glo), PaCaDD137 cells; type: cell-based
Protocol: Cell Viability Assays and RASGRF1 knockdown. Ba/F3 cells or PaCaDD137 cells were seeded in 96-well microtiter plates. Drug or drug vehicle was added on the same day (for Ba/F3 cells) or 24 hours after seeding (for PaCaDD137 cells). […] Luminescence was measured with a Spectramax M3 plate reader (Molecular Devices). Data analysis was performed using GraphPad Prism software.

Compound	IC50 ([1]; Mus musculus, BaF3, 96 h, 4 days exposure, Cell Titer-Glo, read-out: half maximal inhibitory concentration (IC50), cell viability)	IC50 (PaCaDD137 cells; 120 h, 5 days, Cell Titer-Glo)	activity of addition of pictilisib to trametinib compared to trametinib alone ([1]; 100 or 500 nM pictilisib, 4 days)	sensitivity (cell viability) ([1]; 4 days, Cell Titer-Glo)	activity of addition of pictilisib to trametinib compared to trametinib alone (PaCaDD137 cells; 100 or 500 nM pictilisib, 6 days)	sensitivity (cell viability) (PaCaDD137 cells; Cell Titer-Glo)
CC(=O)Nc1cccc(-n2c(=O)n(C3CC3)c(=O)c3c(Nc4ccc(I)cc4F)n(C)c(=O)c(C)c32)c1 [trametinib]	~0.15 nM	~20 nM				
CS(=O)(=O)N1CCN(Cc2cc3nc(-c4cccc5[nH]ncc45)nc(N4CCOCC4)c3s2)CC1 [pictilisib]			only a modest increase in activity	only a modest increase in sensitivity	only a modest increase in activity	not

Reference: patent US20240415839A1, “Identification and Treatment of Cancers Associated with RASGRF1 Gene Fusions” (YALE UNIVERSITY, priority 2021, published 2024)
